{"source": "patent US20110003760A1", "about": "“ABNORMAL PROTEIN REMOVING METHOD” (priority 2005, published 2011)", "key": {"[1]": {"test_system": "trypsin-like proteasome activity in three-dimensional human skin model", "test": "Proteasome activity in three-dimensional human skin model", "assay_type": "cell-based", "details": "for proteasome activity compared to the sample not given any treatment: without UV irradiation", "description": "(§1) Three-dimensional human skin models are widely used in safety evaluation and effectiveness evaluation as a simulated model of human skin. In this test, TESTSKIN (LSE-high) (Toyobo Co., Ltd.) was used as a three-dimensional human skin model.\n(§2) A culture medium was added to the outer well of TESTSKIN (LSE-high) and cultured for 24 hours. UVA and UVB were irradiated at 10 J/cm^2 and 100 mJ/cm^2, respectively. UVB was irradiated for 2 minutes at a UV intensity of […] using FL20S-E-30/DMR (Clinical Supply Co., Ltd.) to achieve a total irradiation dose of 100 mJ/cm^2. UV intensity was measured using a UV MONITOR MS-211-I (Eiko Instruments Co., Ltd.).\nThereafter, the culture solution was changed and each agent was added by 100 μl onto the tissues in the assay ring, after which the medium was cultured for 36 hours. Thereafter, the tissues were collected and a tissue extraction solution (50 mM Tris-HCl (pH 7.5), 0.5% (Octylphenoxy) polyethoxyethanol (Sigma-Aldrich Corp.)) was added, and then the mixture was homogenized using a Teflon (registered trademark) homogenizer. The homogenized mixture was centrifuged for 30 minutes at 10,000×G to remove tissue fragments, and then dialyzed overnight in distilled water at 4° C. Thereafter, the dialyzed mixture was freeze-dried to remove water. A tissue extraction solution was added to obtain a ×20 concentrate, and this concentrate was used as a three-dimensional skin model extract sample.\nProteasome activity was measured using a known method (Hayashi, et al., Mechanisms of Aging and Development, Vol. 102, pp. 55-66, 1998) based on cell extract samples.\nThe specific method is as follows. For the matrix to measure trypsin-like proteasome activity, t-butyloxycarbonyl-L-leucyl-L-arginyl-L-arginyl-L-4-methyl-coumaryl-7-amide (Peptide Institute, Inc.) was used. A cell extract sample containing protein by an equivalent of 10 μg was added to 10.5 μl of a 100 μM matrix solution prepared with 100 mM Tris-HCl (pH 8.0), after which a cell extraction solution was added to a total volume of 50 μl. The obtained solution was treated for 30 minutes at 37° C., after which the fluorescence intensity of the separated 7-amine-4-methyl coumarin was measured at an excitation wavelength (Ex) of 380 nm and absorption waveform (Em) of 440 nm. The result was obtained for each sample type treated with each agent, as an “average ±standard error” calculated from the measured values of three samples.\nBased on the above results, it is clear that Bletilla striata extract and silybin promote proteasome activity in a three-dimensional skin model in a manner dependent on the concentration. Accordingly, whether or not a combined use of Bletilla striata extract and silybin would synergistically promote proteasome activity was evaluated. Also, whether or not a combined use of silybin and soybean saponin, a substance known to have an action to promote proteasome activity, would synergistically promote proteasome activity was evaluated. As a result, regardless of whether or not UV light was irradiated, using silybin (3 μM) in combination with Bletilla striata extract (0.1%; final extract concentration of 0.001%), or using silybin (3 μM) in combination with soybean saponin (0.0005%), promoted proteasome activity synergistically compared to when a sample was treated with silybin (3 μM), Bletilla striata extract (0.1%; final extract concentration of 0.001%) or soybean saponin (0.0005%) alone, as far as promotion of proteasome activity in a three-dimensional skin model was concerned (FIG. 12)."}, "[2]": {"test_system": "carbonylated type I collagen in three-dimensional human skin model", "test": "Carbonylated collagen in three-dimensional human skin model, type I collagen immunoprecipitation and Western blotting", "assay_type": "cell-based", "details": "silybin 3 μM, Bletilla striata extract 0.1%, soybean saponin 0.0005%, alone or combined; for Relative photographic density (carbonylated collagen): Table 8, non-reduced protein, untreated without UV = 100%", "description": "as §1, §2\nThereafter, the culture solution was changed and each agent was added by 100 μl onto the tissues in the assay ring, after which the medium was cultured for 36 hours. […]\nUsing the protein derived from the three-dimensional human skin model extract treated with each agent, type I collagen was immunoprecipitated by means of a known method (Mizushima, et al., Jpn. J. Cancer Res. Vol. 93, pp. 652-659, 2002). […] The immunoprecipitate was washed three times using a STEN buffer solution, after which 50 μl of a SDS-PAGE sample buffer solution was added and the amount of carbonylated protein and amount of type I collagen were measured by means of Western blotting.\nFrom the results shown in FIG. 7 and Table 7, it is clear that using silybin in combination with Bletilla striata extract, or using silybin in combination with soybean saponin, synergistically suppresses carbonylated protein. Next, whether or not carbonylation of type I collagen would be suppressed by using silybin in combination with Bletilla striata extract, or using silybin in combination with soybean saponin, was evaluated to check the possibility of using such combinations to remove oxidized collagen that accumulates with age to cause lines, sagging, dull complexion and other signs of aging skin. […]"}, "[3]": {"test_system": "three-dimensional human skin model", "test": "Cell toxicity at treatment concentrations in three-dimensional human skin model", "details": "at 3 and 10 μM"}, "[4]": {"details": "FIG. 11, 3 μM, under UV irradiation"}, "[5]": {"details": "FIG. 11, 10 μM, under UV irradiation"}, "[6]": {"details": "FIG. 12, under UV irradiation, silybin 3 μM, Bletilla striata extract 0.1%, soybean saponin 0.0005%, alone or combined"}}}
{"smiles": "COc1cc(C2Oc3cc([C@H]4Oc5cc(O)cc(O)c5C(=O)[C@@H]4O)ccc3OC2CO)ccc1O", "note": "(stereo partly shown) [Silybin, silybin]", "values": [{"measurement": "proteasome activity compared to the sample not given any treatment under UV irradiation (75%)", "setting": "[1]; [4]", "result": 140, "unit": "%"}, {"measurement": "relative proteasome activity level", "setting": "[1]; [4]", "result": 105, "unit": "%"}, {"measurement": "proteasome activity compared to the sample not given any treatment", "setting": "[1]; FIG. 11, 3 μM", "result": 145, "unit": "%"}, {"measurement": "proteasome activity compared to the sample not given any treatment under UV irradiation (75%)", "setting": "[1]; [5]", "result": 170, "unit": "%"}, {"measurement": "relative proteasome activity level", "setting": "[1]; [5]", "result": 128, "unit": "%"}, {"measurement": "proteasome activity compared to the sample not given any treatment", "setting": "[1]; FIG. 11, 10 μM", "result": 178, "unit": "%"}, {"measurement": "proteasome activity compared to the sample not given any treatment under UV irradiation (73%)", "setting": "[1]; [6]", "result": 121, "unit": "%"}, {"measurement": "relative proteasome activity level", "setting": "[1]; [6]", "result": 88, "unit": "%"}, {"measurement": "proteasome activity compared to the sample not given any treatment", "setting": "[1]; FIG. 12, silybin 3 μM, Bletilla striata extract 0.1%, soybean saponin 0.0005%, alone or combined", "result": 125, "unit": "%"}, {"measurement": "Relative photographic density (carbonylated collagen)", "setting": "[2]; head printed UV (−)", "result": 430, "unit": "%"}, {"measurement": "Relative photographic density (carbonylated collagen)", "setting": "[2]; first column UV (−)", "result": 72, "unit": "%"}, {"measurement": "amount of carbonylated collagen compared to the sample not given any treatment under UV irradiation", "setting": "[2]; non-reduced protein, UV irradiation", "result": 72, "unit": "%"}, {"measurement": "cell toxicity", "setting": "[3]", "result": "does not occur"}]}
